# Experimental data taken from the supplement of paper PMC10307832.
# Tests used:
# Assay in all cases: relative viability (nuclei count vs DMSO), 5 days (fraction); higher = more cells survive
# NCI-H358 = test system: NCI-H358
# How it was run: (§1)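 Lung cancer cell lines in 1536-well plates got either a single drug or a fixed anchor-drug dose together with five library-drug doses (not always all listed) in √10 steps, by pin tool, on the day after seeding. Nuclei were counted after 5 days, and relative viability is the treated-to-vehicle ratio of nuclei counts. Values are medians of duplicate plates.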
# NCI-H1975 = test system: NCI-H1975
# How it was run: as §1
# H3255 = test system: H3255
# How it was run: as §1
# ABC-1 = test system: ABC-1
# How it was run: as §1
# NCI-H727 = test system: NCI-H727
# How it was run: as §1
# NCI-H1437 = test system: NCI-H1437
# How it was run: as §1
# EKVX = test system: EKVX
# How it was run: as §1
# COR-L 105 = test system: COR-L 105
# How it was run: as §1
# NCI-H1792 = test system: NCI-H1792
# How it was run: as §1
# LCLC-103H = test system: LCLC-103H
# How it was run: as §1
# NCI-H1651 = test system: NCI-H1651
# How it was run: as §1
# EPLC-272H = test system: EPLC-272H
# How it was run: as §1
# NCI-H661 = test system: NCI-H661
# How it was run: as §1
# HCC-15 = test system: HCC-15
# How it was run: as §1
# COR-L23 = test system: COR-L23
# How it was run: as §1
# HCC-827 = test system: HCC-827
# How it was run: as §1
# NCI-H1650 = test system: NCI-H1650
# How it was run: as §1
# NCI-H647 = test system: NCI-H647
# How it was run: as §1
# UMC-11 = test system: UMC-11
# How it was run: as §1
# NCI-H2087 = test system: NCI-H2087
# How it was run: as §1
# 201T = test system: 201T
# How it was run: as §1
# NCI-H520 = test system: NCI-H520
# How it was run: as §1
structure (smiles),measurement,setting,value
Cc1cnc(-c2cnc(NCCNc3ccc(C#N)cn3)nc2-c2ccc(Cl)cc2Cl)[nH]1 + Cc1nc(Nc2ncc(C(=O)Nc3c(C)cccc3Cl)s2)cc(N2CCN(CCO)CC2)n1 [Dasatinib] (partner 0.075 µM),relative viability,NCI-H358; first compound 0.08 µM,0.157
same,relative viability,NCI-H358; first compound 0.253 µM,0.17
same,relative viability,NCI-H358; first compound 0.8 µM,0.207
same,relative viability,NCI-H358; first compound 2.53 µM,0.189
same,relative viability,NCI-H1975; first compound 0.08 µM,0.427
same,relative viability,NCI-H1975; first compound 0.253 µM,0.336
same,relative viability,NCI-H1975; first compound 0.8 µM,0.282
same,relative viability,NCI-H1975; first compound 2.53 µM,0.241
same,relative viability,H3255; first compound 0.08 µM,0.466
same,relative viability,H3255; first compound 0.253 µM,0.445
same,relative viability,H3255; first compound 2.53 µM,0.388
same,relative viability,ABC-1; first compound 0.08 µM,0.553
same,relative viability,ABC-1; first compound 0.8 µM,0.476
same,relative viability,ABC-1; first compound 2.53 µM,0.417
same,relative viability,NCI-H727; first compound 0.08 µM,0.452
same,relative viability,NCI-H727; first compound 0.253 µM,0.358
same,relative viability,NCI-H727; first compound 0.8 µM,0.339
same,relative viability,NCI-H727; first compound 2.53 µM,0.54
same,relative viability,NCI-H1437; first compound 0.08 µM,0.425
same,relative viability,NCI-H1437; first compound 0.253 µM,0.369
same,relative viability,NCI-H1437; first compound 0.8 µM,0.309
same,relative viability,NCI-H1437; first compound 2.53 µM,0.278
same,relative viability,EKVX; first compound 0.08 µM,0.608
same,relative viability,EKVX; first compound 0.253 µM,0.518
same,relative viability,EKVX; first compound 0.8 µM,0.494
same,relative viability,EKVX; first compound 2.53 µM,0.493
same,relative viability,COR-L 105; first compound 0.08 µM,0.354
same,relative viability,COR-L 105; first compound 0.253 µM,0.344
same,relative viability,COR-L 105; first compound 0.8 µM,0.282
same,relative viability,COR-L 105; first compound 2.53 µM,0.208
same,relative viability,NCI-H1792; first compound 0.08 µM,0.998
same,relative viability,NCI-H1792; first compound 0.253 µM,0.777
same,relative viability,NCI-H1792; first compound 0.8 µM,0.772
same,relative viability,NCI-H1792; first compound 2.53 µM,0.762
same,relative viability,LCLC-103H; first compound 0.08 µM,0.404
same,relative viability,LCLC-103H; first compound 0.253 µM,0.442
same,relative viability,LCLC-103H; first compound 0.8 µM,0.434
same,relative viability,LCLC-103H; first compound 2.53 µM,0.433
same,relative viability,NCI-H1651; first compound 0.08 µM,0.426
same,relative viability,NCI-H1651; first compound 0.253 µM,0.436
same,relative viability,NCI-H1651; first compound 0.8 µM,0.376
same,relative viability,NCI-H1651; first compound 2.53 µM,0.355
same,relative viability,EPLC-272H; first compound 0.253 µM,0.374
same,relative viability,EPLC-272H; first compound 0.8 µM,0.409
same,relative viability,EPLC-272H; first compound 2.53 µM,0.397
same,relative viability,NCI-H661; first compound 0.08 µM,1.04
same,relative viability,NCI-H661; first compound 0.253 µM,0.778
same,relative viability,NCI-H661; first compound 0.8 µM,0.845
same,relative viability,NCI-H661; first compound 2.53 µM,0.794
same,relative viability,HCC-15; first compound 0.08 µM,0.687
same,relative viability,HCC-15; first compound 0.253 µM,0.509
same,relative viability,HCC-15; first compound 0.8 µM,0.598
same,relative viability,HCC-15; first compound 2.53 µM,0.625
same,relative viability,COR-L23; first compound 0.253 µM,0.419
same,relative viability,COR-L23; first compound 0.8 µM,0.51
same,relative viability,COR-L23; first compound 2.53 µM,0.5
same,relative viability,HCC-827; first compound 0.08 µM,0.371
same,relative viability,HCC-827; first compound 0.8 µM,0.291
same,relative viability,HCC-827; first compound 2.53 µM,0.318
same,relative viability,NCI-H1650; first compound 0.08 µM,0.31
same,relative viability,NCI-H1650; first compound 0.253 µM,0.345
same,relative viability,NCI-H1650; first compound 0.8 µM,0.295
same,relative viability,NCI-H1650; first compound 2.53 µM,0.312
same,relative viability,NCI-H647; first compound 0.08 µM,0.229
same,relative viability,NCI-H647; first compound 0.253 µM,0.197
same,relative viability,NCI-H647; first compound 0.8 µM,0.179
same,relative viability,NCI-H647; first compound 2.53 µM,0.223
same,relative viability,UMC-11; first compound 0.08 µM,0.515
same,relative viability,UMC-11; first compound 0.253 µM,0.542
same,relative viability,UMC-11; first compound 0.8 µM,0.498
same,relative viability,UMC-11; first compound 2.53 µM,0.527
same,relative viability,NCI-H2087; first compound 0.08 µM,0.837
same,relative viability,NCI-H2087; first compound 0.253 µM,0.698
same,relative viability,NCI-H2087; first compound 0.8 µM,0.919
same,relative viability,NCI-H2087; first compound 2.53 µM,0.614
same,relative viability,201T; first compound 0.08 µM,0.621
same,relative viability,201T; first compound 0.8 µM,0.591
same,relative viability,201T; first compound 2.53 µM,0.571
same,relative viability,NCI-H520; first compound 0.08 µM,0.219
same,relative viability,NCI-H520; first compound 0.253 µM,0.186
same,relative viability,NCI-H520; first compound 0.8 µM,0.245
same,relative viability,NCI-H520; first compound 2.53 µM,0.299
